Here are results for 20 molecules from US20250212891A1, “MIXTURES AND COMPOSITIONS COMPRISING PAENIBACILLUS STRAINS OR FUSARICIDINS AND CHEMICAL PESTICIDES” (BASF SE, priority 2016, published 2025).

Read-outs that look alike come from different tables or passages of the source. Positions of bridges follow the written chain, without caps; N, C: chain ends. Non-standard residues stand in square brackets, D forms with d. Residues, ends and D or L forms follow the SMILES beside them. ξ: configuration not given here. *: point of attachment. Pentadecanoyl(3ξ-OH,15-Gua) = N=C(N)NCCCCCCCCCCCCC(O)CC(=O)*; d(aThr) = C[C@@H](O)[C@@H](N)C(=O)O

For experiment [1], the system named is Botrytis cinerea. Description: Microtiterplate test against grey mold (Botrci). The class given is cell-based.
For experiment [2], the system named is Botrytis cinerea (BOTRCI). Put plainly: Fungal growth assay in 96 well plates. The note with it: evaluation 7 days after inoculation, OD 600 nm, about 18° C., read-out: Fungal growth inhibition (IC50 [μM]) BOTRCI (7 d). The experiment is classed as cell-based.
In experiment [3] the test system is Phytophthora infestans (PHYTIN). The experiment is classed as in vivo. As to conditions: protective application, 7.2 ppm.
In experiment [4] the test system is Fusarium graminearum (GIBBZE). The experiment is classed as in vivo. The note with it: protective application, 360 ppm.
For experiment [5], the system named is Alternaria solani (ALTESO). Description: Fungal growth assay in 96 well plates. The experiment is classed as cell-based.
In experiment [6] the test system is Septoria tritici. Description: Microtiterplate test against leaf blotch on wheat (Septtr). The class given is cell-based.
For experiment [7], the system named is Leptosphaeria nodorum. Description: Microtiterplate test against wheat leaf spots (Leptno). The experiment is classed as cell-based.
The subject of experiment [8] is Alternaria solani. Put plainly: Microtiterplate test against early blight (Alteso). The class given is cell-based.
Experiment [9] has as its system Pyricularia oryzae. The class given is cell-based. As to conditions: Pyrior, single active, 7 days after inoculation.
Experiment [10] has as its system Phakopsora pachyrhizi (PHAKPA). Description: Glasshouse test, soybean rust on soybean, protective application. The experiment is classed as in vivo. The note with it: in planta, 360 ppm.
Experiment [11] deals with Botrytis cinerea (BOTRCI). Description: Glasshouse test, grey mold on pepper, protective application. The experiment is classed as in vivo. As to conditions: in planta.
The subject of experiment [12] is clinically relevant fungi and gram-positive bacteria such a Staphylococcus aureus. As to conditions: ChemMedChem 7, 871-882, 2012; cited from earlier work.
Experiment [13] deals with Alternaria solani (ALTESO). Put plainly: Glasshouse test, early blight on tomato, protective application. The experiment is classed as in vivo. The note with it: in planta, 36 ppm.
Setting [14] is: Botrytis cinerea, 168 h, read-out: Observed efficacy.
The mark [15] stands for this setting: evaluation 3 days after inoculation, OD 600 nm, about 18° C., read-out: Fungal growth inhibition (IC50 [μM]) ALTESO (3 d).
[16] abbreviates: evaluation 7 days after inoculation, OD 600 nm, about 18° C., read-out: Fungal growth inhibition (IC50 [μM]) ALTESO (7 d).
Where [17] appears, read: Botrytis cinerea, 168 h, 0.016 ppm, read-out: Observed efficacy.
The mark [18] stands for this setting: Botrytis cinerea, 168 h, 0.063 ppm, read-out: Observed efficacy.
Setting [19] is: Botrytis cinerea, 168 h, 1 ppm, read-out: Observed efficacy.
[20] abbreviates: Alternaria solani, 72 h, evaluation 3 days after inoculation, OD 600 nm, about 18° C., read-out: Fungal growth inhibition (IC50 [μM]) ALTESO (3 d).
[21] abbreviates: Alternaria solani, 168 h, evaluation 7 days after inoculation, OD 600 nm, about 18° C., read-out: Fungal growth inhibition (IC50 [μM]) ALTESO (7 d).
Setting [22] is: Alternaria solani, summary over ALTESO and BOTRCI of Tab. 18, read-out: IC50 values (antifungal efficacy, Tab. 18).

As for `N#Cc1c[nH]cc1-c1cccc2c1OC(F)(F)O2` [Fludioxonil], the inhibition of growth at 0.004 ppm in experiment [1] (setting [14]) is 12%.

As for `CC(C)[C@@H]1NC(=O)[C@@H](C(C)C)NC(=O)[C@@H](NC(=O)CC(O)CCCCCCCCCCCCN=C(N)N)C(C)OC(=O)[C@@H](C)NC(=O)[C@@H](CCC(N)=O)NC(=O)[C@@H]([C@H](C)O)NC1=O` (stereo in doubt) [Fusaricidin B, fusaricidin B], the IC50 (as a rule, the concentration that gives 50% inhibition) in [2] is 0.6 µM; in experiment [5] (setting [15]), 1.1 µM; in experiment [5] (setting [16]), 0.6 µM. Moreover, the “% efficacy (% fungal attack), late blight on tomato caused by Phytophthora infestans” value in experiment [3] is 4%. The “% efficacy (% fungal attack), head blight on wheat caused by Fusarium graminearum” value in experiment [4] was 0%.

As for `O=C(NCCc1ncc(C(F)(F)F)cc1Cl)c1ccccc1C(F)(F)F` [Fluopyram], the Observed efficacy in experiment [6] (0.25 ppm) was found to be 12%; in experiment [6] (1 ppm), 32%.

On to `CO/C=C(/C(=O)OC)c1ccccc1Oc1cc(Oc2ccccc2C#N)ncn1` [Azoxystrobin], for which the Observed efficacy in [7] (0.25 ppm) is 59%; in [8] (0.016 ppm) it was 43%; in experiment [6] (0.063 ppm), 60%.

`Cn1cc(C(=O)Nc2ccccc2-c2cc(F)c(F)c(F)c2)c(C(F)F)n1` [Fluxapyroxad] gave an Observed efficacy in experiment [1] (0.016 ppm) of 1%.

For the molecule `COC(=O)N(OC)c1ccccc1COc1ccn(-c2ccc(Cl)cc2)n1` [Pyraclostrobin, pyraclostrobin, reference compound], the inhibition of growth at 0.001 ppm in [1] (Botrytis cinerea, 168 h, 0.001 ppm, read-out: Observed efficacy) was found to be 4%. Besides, in experiment [1] (setting [17]), the inhibition of growth at 0.016 ppm was determined as 5%. In addition, the inhibition of growth at 0.25 ppm in experiment [1] (setting [14]) stood at 10%. For the same molecule, the Observed efficacy in experiment [7] (0.001 ppm) was 3%; in experiment [7] (0.016 ppm), 11%; in experiment [9] (0.001 ppm), 28%; in experiment [9] (0.004 ppm), 44%; in [6] (0.004 ppm) it was 12%.

Take `CC1(C)CCC(=Cc2ccc(Cl)cc2)C1(O)Cn1cncn1` (stereo not drawn) [Triticonazol, triticonazole, reference compound]: in experiment [1] (setting [14]), the inhibition of growth at 0.25 ppm amounted to 19%. The molecule also had an Observed efficacy in experiment [9] (4 ppm) of 39%.

For `Cc1cc(C)nc(Nc2ccccc2)n1` [Pyrimethanil], the inhibition of growth at 0.063 ppm in experiment [1] (setting [18]) came to 11%. The inhibition of growth at 4 ppm in [1] (Botrytis cinerea, 168 h, 4 ppm, read-out: Observed efficacy) amounted to 45%. In experiment [7] (0.063 ppm), this molecule displayed an Observed efficacy of 1%.

For the molecule `COCC(=O)N(c1c(C)cccc1C)C(C)C(=O)OC` (stereo not drawn) [Metalaxyl], in experiment [1] (setting [14]), the inhibition of growth at 0.25 ppm worked out at 0%. Further, the Observed efficacy is listed as 0% in experiment [7] (0.063 ppm) and 10% in [8] (16 ppm).

Regarding `CCC(C)C1NC(=O)C(NC(=O)CC(O)CCCCCCCCCCCCNC(=N)N)C(C)OC(=O)C(C)NC(=O)C(CCC(N)=O)NC(=O)C(C(C)O)NC(=O)C(Cc2ccc(O)cc2)NC1=O` (stereo not drawn) [Compound 1B, fusaricidin 1B] ({Pentadecanoyl(3ξ-OH,15-Gua)}-TIYTQA; ester 1-C; configuration not given here), the inhibition of growth at 0.25 ppm in experiment [1] (setting [14]) came out at 4%. Moreover, the inhibition of growth at 1 ppm in experiment [1] (setting [19]) was determined as 50%. In addition, in experiment [10], the “% efficacy (% fungal attack) PHAKPA” value came out at 97%. In addition, the Observed efficacy in experiment [7] (0.25 ppm) was 0%; in [7] (1 ppm), 14%; in [9] (0.016 ppm), 2%; in experiment [9] (0.063 ppm), 3%; in [9] (0.25 ppm), 3%; in experiment [9] (1 ppm) it was 12%. Also, the Observed efficacy was found to be 13% in experiment [8] (0.063 ppm); 14% in experiment [8] (0.25 ppm); 59% in experiment [8] (1 ppm); 20% in experiment [6] (0.016 ppm); 22% in experiment [6] (0.063 ppm); 20% in [6] (0.25 ppm). The “% efficacy (% fungal attack) BOTRCI” value is recorded as 97% in [11] (36 ppm) and 100% in [11] (360 ppm). For the same molecule, the IC50 in experiment [2] (Botrytis cinerea, 168 h) is 0.4 µM; in experiment [5] (setting [20]) it was 0.6 µM; in experiment [5] (setting [21]), 0.4 µM; in [5] (setting [22]) it was 0.4 to 0.6 µM.

Regarding `CC(O)(Cn1cncn1)c1ccc(Oc2ccc(Cl)cc2)cc1C(F)(F)F` (stereo not drawn) [Mefentrifluconazol, 2-[4-(4-chlorophenoxy)-2-(trifluoromethyl)phenyl]-1-(1H-1,2,4-triazol-1-yl) propan-2-ol, reference compound], in experiment [1] (setting [17]), the inhibition of growth at 0.016 ppm was 5%. Also, the Observed efficacy in [7] (0.001 ppm) is given as 0%; in [7] (0.016 ppm), 29%; in experiment [8] (0.016 ppm), 12%; in experiment [6] (0.001 ppm), 21%.

prohexadione-calcium [Prohexadion-ca] showed an Observed efficacy in experiment [9] (4 ppm) of 4%.

Consider `OC(Cc1ccccc1Cl)(Cn1nc[nH]c1=S)C1(Cl)CC1` (stereo not drawn) [Prothioconazol, prothioconazole, reference compound], for which the Observed efficacy in experiment [9] (0.25 ppm) is 25%; in experiment [6] (0.063 ppm), 10%.

For the molecule `CC1COC(Cn2cncn2)(c2ccc(Oc3ccc(Cl)cc3)cc2Cl)O1` (stereo not drawn) [Difenoconazol], the Observed efficacy in experiment [8] (0.25 ppm) is 67%.

With `CC(C)[C@@H]1NC(=O)[C@@H](C(C)C)NC(=O)[C@@H](NC(=O)CC(O)CCCCCCCCCCCCN=C(N)N)[C@@H](C)OC(=O)[C@@H](C)NC(=O)[C@@H](CC(N)=O)NC(=O)[C@@H]([C@@H](C)O)NC1=O` (stereo partly drawn) [Fusaricidin A, fusaricidin A] ({Pentadecanoyl(3ξ-OH,15-Gua)}-T[dV]V[d(aThr)][dN][dA]; ester 1-C), the IC50 in [2] came to 0.5 µM; in experiment [5] (setting [15]) it was 1.3 µM; in experiment [5] (setting [16]) it was 0.7 µM. Moreover, the “% efficacy (% fungal attack), late blight on tomato caused by Phytophthora infestans” value in [3] stood at 15%. In addition, in experiment [4], the “% efficacy (% fungal attack), head blight on wheat caused by Fusarium graminearum” value is given as 31%. The MIC value range in [12] is 0.78 to 3.12 µg/mL.

Consider `Cn1cc(C(=O)Nc2cccc3c2[C@@H]2CC[C@H]3C2=C(Cl)Cl)c(C(F)F)n1` (racemic) [Benzovindiflupyr, benzovindiflupyr, reference compound], for which the Observed efficacy in experiment [1] (0.063 ppm) was 17%; in experiment [7] (0.25 ppm), 26%; in [9] (0.016 ppm), 72%; in experiment [8] (0.016 ppm) it was 12%; in experiment [6] (0.25 ppm), 77%.

As for `COCC(=O)N(c1c(C)cccc1C)[C@H](C)C(=O)OC` [Mefenoxam], the Observed efficacy in experiment [1] (0.063 ppm) is given as 5%; in [8] (1 ppm) it was 18%.

Consider `CC1(C)CCC(Cc2ccc(Cl)cc2)C1(O)Cn1cncn1` (stereo not drawn) [Metconazol, metconazole, reference compound], for which the inhibition of growth at 0.004 ppm in experiment [1] (Botrytis cinerea, 168 h, 0.004 ppm, read-out: Observed efficacy) is 1%. For the same molecule, in [1] (setting [17]), the inhibition of growth at 0.016 ppm was determined as 9%. Also, the inhibition of growth at 0.063 ppm in experiment [1] (setting [18]) amounted to 29%. For the same molecule, the Observed efficacy amounted to 3% in experiment [7] (0.016 ppm); 27% in experiment [7] (0.063 ppm); 23% in experiment [9] (0.25 ppm); 45% in experiment [8] (0.063 ppm); 25% in experiment [6] (0.016 ppm).

Consider `CNC(=O)/C(=N/OC)c1ccccc1COc1cc(C)ccc1C` [Dimoxystrobin], for which the Observed efficacy was 0% in experiment [1] (0.063 ppm), 23% in experiment [1] (1 ppm), 36% in [8] (0.063 ppm) and 73% in [6] (0.063 ppm).

With `CCC(C)C1NC(=O)C(NC(=O)CC(O)CCCCCCCCCCCCNC(=N)N)C(C)OC(=O)C(C)NC(=O)C(CC(N)=O)NC(=O)C(C(C)O)NC(=O)C(Cc2ccc(O)cc2)NC1=O` (stereo not drawn) [Compound 1A, fusaricidin 1A] ({Pentadecanoyl(3ξ-OH,15-Gua)}-TIYTNA; ester 1-C; configuration not given here), the inhibition of growth at 1 ppm in experiment [1] (setting [19]) worked out at 40%. Moreover, the “% efficacy (% fungal attack) PHAKPA” value in experiment [10] worked out at 95%. Moreover, the Observed efficacy in experiment [7] (1 ppm) is recorded as 19%; in experiment [9] (0.004 ppm), 3%; in experiment [9] (1 ppm), 7%; in experiment [8] (0.016 ppm), 1%; in experiment [8] (0.063 ppm), 7%; in experiment [8] (0.25 ppm), 10%. Moreover, the Observed efficacy in experiment [8] (1 ppm) is 58%; in [6] (0.016 ppm), 9%; in [6] (0.063 ppm), 8%; in experiment [6] (0.25 ppm) it was 12%. The “% efficacy (% fungal attack) BOTRCI” value was 97% in experiment [11] (36 ppm) and 99% in [11] (360 ppm). For the same molecule, the IC50 is 0.3 µM in experiment [2] (Botrytis cinerea, 168 h); 0.6 µM in experiment [5] (setting [20]); 0.5 µM in [5] (setting [21]); 0.4 to 0.6 µM in experiment [5] (setting [22]). In addition, the “% efficacy (% fungal attack) ALTESO” value in [13] came out at 74%.
